From PubChem BioAssay AID1963421 (Molecular Pharmacology Branch, DTP, NCI, 2024)

Tested on: 519858-162-T-J1-PDC complex spheroid growth, % test/control
Experiment: Anticancer human tumor 519858-162-T-J1-PDC patient-derived colon adenocarcinoma cell line growth inhibition [Asc]
Settings: for IC50: curve of first compound; for viability, T/C: stronger effect = lower value
Experimental: Multicellular complex tumor spheroid response to apoptosis pathway targeting inhibitors Alrizomadlin, Pelcitoclax, and Dasminapant in combination with a variety of drugs and investigational agents in selected tumor cell lines
The MDM2 inhibitor alrizomadlin, the Bcl-2/Bcl-xL inhibitor pelcitoclax, and the IAPs inhibitor dasminapant were evaluated both individually and in combination with standard of care and investigational anticancer small molecules within a complex spheroid model of solid tumors. . Complex spheroids include a stromal component modeled by human endothelial cells (HUVEC) and fibroblasts modeled by human mesenchymal stem cells (MSCs). The concentration ranges selected for each drug and investigational agent were based upon clinically achievable concentrations if the clinical Cmax of the agent was known.
Compounds. The drugs and investigational agents: alrizomadlin (APG-115; NSC831270), pelcitoclax (APG-1252; NSC835773), dasminapant (APG-1387;NSC834197), TAK-243 (NSC785004), copanlisib (NSC809693), olaparib (NSC753686), talazoparib (NSC767125), cobimetinib (NSC 768068), eltanexor (KPT-8602, NSC 794443), abemaciclib (NSC 768073), sotorasib (NSC818433), adagrasib (NSC 831453), MRTX-1133 (NSC 836407), Iadademestat (ORY1001, NSC 806812), and RMC-4630 (NSC839698), were obtained from the NCI Developmental Therapeutics Program Chemical Repository. The FDA-approved anticancer drug set is available from the Developmental Therapeutics Program at https://dtp.cancer.gov/organization/dscb/obtaining/available plates.htm. […] The stock solutions were prepared in dimethyl sulfoxide (DMSO, Sigma-Aldrich, St. Louis, MO, cat. D2650) at 800-fold the tested concentration and stored at -70 degrees C prior to their use. All drugs and investigational agents were tested over a range starting from a high concentration at or near the clinical Cmax and decreasing in half-log increments. If the clinical Cmax for an agent had not been determined, the highest concentration tested was 10 microM.
The patient-derived cancer (PDC) cell lines include five colon adenocarcinomas: 186277-243-T-J2-PDC, 616215-338-R-J1-PDC, 439559-082-T-J2-PDC, 463943-066-T-J2-PDC, and 519858-162-T-J1-PDC; three pancreatic carcinomas: 323965-272-R-J2-PDC, 521955-158-R6-J3-PDC, and 521955-158-R2-J5-PDC; two uterine sarcomas: 327498-152-R-J2-PDC and 993429-296-R-J1-PDC; two rhabdomyosarcomas: 755483-174-R-J1-PDC and 772245-204-R-J1-PDC; two soft tissue sarcomas: 126254-015-R-J1-PDC and 494315-158-R-J1-PDC; two malignant fibrous histiocytomas: 317291-083-R-J1-PDC and 596521-263-R-J1-PDC; two breast carcinomas: 171881-019-R-J1-PDC and 885512-296-R-J2-PDC; and one ovarian carcinoma: 6556581-035-R-J-PDC were obtained from the NCI PDMR, (https://pdmr.cancer.gov). The established cell lines HSSY-2 synovial sarcoma (RRID:CVCL 8719), SYO-1 synovial sarcoma (RRID:CVCL_7146), MPNST malignant peripheral neural sheath tumor were obtained from the Sloan Kettering Institute. The following established cell lines were purchased from the American Type Culture Collection (ATCC, Manassas, VA), Sor the received from the NCI repository:, PANC-1 pancreatic carcinoma (CRL-1469, RRID:CVCL_0480), OVCAR-5 ovarian carcinoma (RRID:CVCL_1628), OVCAR-8 ovarian carcinoma (RRID:CVCL_1629), , MCF-7 breast carcinoma (CRL-12584, RRID:CVCL_0031), MDA-MB-231 breast carcinoma (CRL-12532, RRID:CVCL_0062), NCI-H1876 small cell lung carcinoma (CRL-5902, RRID:CVCL_1503), NCI-H510A small cell lung carcinoma (HTB-184, RRID:CVCL_1565), NCI-H1417 (CRL-5869, RRID:CVCL_1469), and NCI-H196 small cell lung carcinoma (CRL-5823, RRID:CVCL_1509). Dr. Peter Houghton (Greehey Children's Cancer Research Institute, University of Texas Health Science Center, San Antonio, TX) provided Rh-18 rhabdomyosarcoma (RRID:CVCL_1659). Pooled donor human umbilical vein endothelial cells (HUVEC, Lonza, cat. CC-2519) and human mesenchymal stem cells (hMSC, Lonza, cat. PT-2501) were purchased from Lonza (Walkersville, MD).
Cell Culture. […]
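Note: seven day drug exposure begun three days after spheroid seeding.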
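Throughout, for viability, T/C: 100% = DMSO vehicle wells and lower values mean less viable spheroid.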

In the case of CNC(C)C(=O)NC1CN(S(=O)(=O)c2cccc(S(=O)(=O)N3CCC4CCC(C(=O)NC(c5ccccc5)c5ccccc5)N4C(=O)C(NC(=O)C(C)NC)C3)c2)CCC2CCC(C(=O)NC(c3ccccc3)c3ccccc3)N2C1=O (centres undefined) + CCN1C(C(=O)NC23CCC(C(=O)O)(CC2)CC3)C(c2cccc(Cl)c2F)C2(C(=O)Nc3cc(Cl)ccc32)C12CCCCC2, the IC50 (second compound 0.00949 µM) is reported as < 0.00316 µM, the IC50 (second compound 0.03 µM) is reported as > 1 µM and the IC50 (second compound 0.0949 µM) is reported as > 1 µM. The IC50 (second compound 0.3 µM) was > 1 µM, the IC50 (second compound 0.949 µM) was > 1 µM and the IC50 (second compound 3 µM) was > 1 µM. It also gave a viability, T/C (second compound 0.00949 µM, first compound 0.00316 µM) of 49.9%, a viability, T/C (second compound 0.00949 µM, first compound 0.01 µM) of 104% and a viability, T/C (second compound 0.00949 µM, first compound 0.0316 µM) of 91.5%. It also gave a viability, T/C (second compound 0.00949 µM, first compound 0.1 µM) of 64.4%, a viability, T/C (second compound 0.00949 µM, first compound 0.316 µM) of 98.7% and a viability, T/C (second compound 0.00949 µM, first compound 1 µM) of 74.6%. The viability, T/C (second compound 0.03 µM, first compound 0.00316 µM) was 112%, the viability, T/C (second compound 0.03 µM, first compound 0.01 µM) was 89.9% and the viability, T/C (second compound 0.03 µM, first compound 0.0316 µM) was 88.3%. It also gave a viability, T/C (second compound 0.03 µM, first compound 0.1 µM) of 79%, a viability, T/C (second compound 0.03 µM, first compound 0.316 µM) of 54.9% and a viability, T/C (second compound 0.03 µM, first compound 1 µM) of 99%. The viability, T/C (second compound 0.0949 µM, first compound 0.00316 µM) was 89.1%, the viability, T/C (second compound 0.0949 µM, first compound 0.01 µM) was 73.9% and the viability, T/C (second compound 0.0949 µM, first compound 0.0316 µM) was 85.1%. The viability, T/C (second compound 0.0949 µM, first compound 0.1 µM) was 75.4%, the viability, T/C (second compound 0.0949 µM, first compound 0.316 µM) was 60.4% and the viability, T/C (second compound 0.0949 µM, first compound 1 µM) was 96.4%. The viability, T/C (second compound 0.3 µM, first compound 0.00316 µM) was 94.6%, the viability, T/C (second compound 0.3 µM, first compound 0.01 µM) was 75.3% and the viability, T/C (second compound 0.3 µM, first compound 0.0316 µM) was 81.2%. The viability, T/C (second compound 0.3 µM, first compound 0.1 µM) was 68.2%, the viability, T/C (second compound 0.3 µM, first compound 0.316 µM) was 74.4% and the viability, T/C (second compound 0.3 µM, first compound 1 µM) was 58.2%. For the same molecule, the viability, T/C (second compound 0.949 µM, first compound 0.00316 µM) was 94.3%, the viability, T/C (second compound 0.949 µM, first compound 0.01 µM) was 87.4% and the viability, T/C (second compound 0.949 µM, first compound 0.0316 µM) was 85.7%. The viability, T/C (second compound 0.949 µM, first compound 0.1 µM) was 70.5%, the viability, T/C (second compound 0.949 µM, first compound 0.316 µM) was 68.2% and the viability, T/C (second compound 0.949 µM, first compound 1 µM) was 66%. For the same molecule, the viability, T/C (second compound 3 µM, first compound 0.00316 µM) was 62%, the viability, T/C (second compound 3 µM, first compound 0.01 µM) was 76.1% and the viability, T/C (second compound 3 µM, first compound 0.0316 µM) was 72.4%. The viability, T/C (second compound 3 µM, first compound 0.1 µM) was 93.9%, the viability, T/C (second compound 3 µM, first compound 0.316 µM) was 73.2% and the viability, T/C (second compound 3 µM, first compound 1 µM) was 74%.

In the case of O=C(c1cc(Cc2n[nH]c(=O)c3ccccc23)ccc1F)N1CCN(C(=O)C2CC2)CC1 + CNC(C)C(=O)NC1CN(S(=O)(=O)c2cccc(S(=O)(=O)N3CCC4CCC(C(=O)NC(c5ccccc5)c5ccccc5)N4C(=O)C(NC(=O)C(C)NC)C3)c2)CCC2CCC(C(=O)NC(c3ccccc3)c3ccccc3)N2C1=O, the IC50 (second compound 0.00316 µM) is reported as > 10 µM, the IC50 (second compound 0.01 µM) is reported as > 10 µM and the IC50 (second compound 0.0316 µM) is reported as > 10 µM. The IC50 (second compound 0.1 µM) was > 10 µM, the IC50 (second compound 0.316 µM) was > 10 µM and the IC50 (second compound 1 µM) was > 10 µM. The viability, T/C (second compound 0.00316 µM, first compound 0.0316 µM) was 61.5%, the viability, T/C (second compound 0.00316 µM, first compound 0.1 µM) was 57.1% and the viability, T/C (second compound 0.00316 µM, first compound 0.316 µM) was 55%. The viability, T/C (second compound 0.00316 µM, first compound 1 µM) was 66.5%, the viability, T/C (second compound 0.00316 µM, first compound 3.16 µM) was 72.8% and the viability, T/C (second compound 0.00316 µM, first compound 10 µM) was 65.1%. The viability, T/C (second compound 0.01 µM, first compound 0.0316 µM) was 127%, the viability, T/C (second compound 0.01 µM, first compound 0.1 µM) was 98.8% and the viability, T/C (second compound 0.01 µM, first compound 0.316 µM) was 103%. For the same molecule, the viability, T/C (second compound 0.01 µM, first compound 1 µM) was 89.4%, the viability, T/C (second compound 0.01 µM, first compound 3.16 µM) was 114% and the viability, T/C (second compound 0.01 µM, first compound 10 µM) was 87%. For the same molecule, the viability, T/C (second compound 0.0316 µM, first compound 0.0316 µM) was 96.9%, the viability, T/C (second compound 0.0316 µM, first compound 0.1 µM) was 73.4% and the viability, T/C (second compound 0.0316 µM, first compound 0.316 µM) was 91.3%. It also gave a viability, T/C (second compound 0.0316 µM, first compound 1 µM) of 91.1%, a viability, T/C (second compound 0.0316 µM, first compound 3.16 µM) of 84.5% and a viability, T/C (second compound 0.0316 µM, first compound 10 µM) of 88.3%. The viability, T/C (second compound 0.1 µM, first compound 0.0316 µM) was 97.9%, the viability, T/C (second compound 0.1 µM, first compound 0.1 µM) was 83.2% and the viability, T/C (second compound 0.1 µM, first compound 0.316 µM) was 89.7%. It also gave a viability, T/C (second compound 0.1 µM, first compound 1 µM) of 84.9%, a viability, T/C (second compound 0.1 µM, first compound 3.16 µM) of 94.4% and a viability, T/C (second compound 0.1 µM, first compound 10 µM) of 76.4%. For the same molecule, the viability, T/C (second compound 0.316 µM, first compound 0.0316 µM) was 68.4%, the viability, T/C (second compound 0.316 µM, first compound 0.1 µM) was 86.6% and the viability, T/C (second compound 0.316 µM, first compound 0.316 µM) was 117%. It also gave a viability, T/C (second compound 0.316 µM, first compound 1 µM) of 97.7%, a viability, T/C (second compound 0.316 µM, first compound 3.16 µM) of 100% and a viability, T/C (second compound 0.316 µM, first compound 10 µM) of 95%. It also gave a viability, T/C (second compound 1 µM, first compound 0.0316 µM) of 80.7%, a viability, T/C (second compound 1 µM, first compound 0.1 µM) of 84.9% and a viability, T/C (second compound 1 µM, first compound 0.316 µM) of 106%. It also gave a viability, T/C (second compound 1 µM, first compound 1 µM) of 99.3%, a viability, T/C (second compound 1 µM, first compound 3.16 µM) of 78.1% and a viability, T/C (second compound 1 µM, first compound 10 µM) of 95.3%.
